Measurements from US9290476B2, “Methylene linked quinolinyl modulators of RORγt” (Janssen Pharmaceutica NV, priority 2012, dated 2016).

Key:
human RORγt LBD = human RORγt LBD (Homo sapiens (Human), UniProt P51449); assay: RORγt reporter assay (GAL4-RORγt LBD luciferase in HEK293T cells); assay type: cell-based; details: for RORγt reporter Assay, % inhibition @ 6 μM / IC50: HEK293T cells; for IC50: 24 hours compound treatment; for inhibition at 6 µM: HEK-293T, read-out: RORγt reporter Assay, % inhibition @ 6 μM, HEK293T cells, 6 μM
Sequence of human RORγt LBD (P51449 258-518): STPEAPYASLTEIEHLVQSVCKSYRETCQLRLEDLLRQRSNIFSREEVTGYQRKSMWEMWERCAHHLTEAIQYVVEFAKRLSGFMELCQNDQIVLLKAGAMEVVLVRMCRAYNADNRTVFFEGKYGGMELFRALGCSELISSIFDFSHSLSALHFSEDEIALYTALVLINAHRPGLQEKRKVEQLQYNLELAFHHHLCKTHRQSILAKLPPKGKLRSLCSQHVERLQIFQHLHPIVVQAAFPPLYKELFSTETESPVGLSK
From the text: A reporter assay was used to test functional activity of RORγt modulatory compounds on transcriptional activation driven by the RORγt LBD. Cells used in the assay were co-transfected with two constructs. The first construct, pBIND-RORγt LBD, contained the wild type human RORγt LBD fused to the DNA binding domain of the GAL4 protein. The second construct, pGL4.31 (Promega Cat no. C935A), contained multiple GAL4 responsive DNA elements upstream of firefly luciferase. […] The mutant construct was called pBIND-RORγt-AF2.
The pBIND vector contains the GAL4 DNA Binding Domain (GAL4 DBD) and the renilla luciferase gene under control of the SV40 promoter. Renilla luciferase expression serves as a control for transfection efficiency and cell viability.
The reporter assay was performed by transiently transfecting HEK293T cells with 5 ng of pBIND-RORγt LBD or pBIND-RORγt LBD-AF2 and 5 μg pGL4.31 (Promega Cat no. C935A) using Fugene 6 ([…] Cat no. E2691) at a 1:6 ratio of DNA: Fugene 6 in a T-75 flask in which cells were at least 80% confluent. Twenty four hours after bulk transfection, cells were plated into 96-well plates at 50,000 cells/well in phenol-red free DMEM containing 5% Lipid Reduced FCS and Pen/Strep. Six hours after plating, cells were treated with compounds for 24 hours. Media was removed and cells were lysed with 50 μL 1× Glo Lysis Buffer (Promega). Dual Glo Luciferase Reagent (50 μL/well) was then added and firefly luciferase luminescence was read on an Envision after a ten minute incubation. Finally, Stop and Glo reagent (50 μL/well) was added and renilla luciferase luminescence was read on an Envision after a ten minute incubation. To calculate the effect of compounds on RORγt activity, the ratio of firefly to renilla luciferase was determined and plotted against compound concentration. Agonist compounds increase RORγt-driven luciferase expression, and antagonist or inverse agonist compounds decrease luciferase expression.

[1] = molecular target: human RORγt ligand binding domain (RORγt LBD) (Homo sapiens (Human), UniProt P51449); assay: RORγt ThermoFluor assay (thermal shift binding affinity); details: estimated from thermal shift
Sequence of human RORγt ligand binding domain (RORγt LBD) (P51449 other isoform, or with tags, fused parts or gaps): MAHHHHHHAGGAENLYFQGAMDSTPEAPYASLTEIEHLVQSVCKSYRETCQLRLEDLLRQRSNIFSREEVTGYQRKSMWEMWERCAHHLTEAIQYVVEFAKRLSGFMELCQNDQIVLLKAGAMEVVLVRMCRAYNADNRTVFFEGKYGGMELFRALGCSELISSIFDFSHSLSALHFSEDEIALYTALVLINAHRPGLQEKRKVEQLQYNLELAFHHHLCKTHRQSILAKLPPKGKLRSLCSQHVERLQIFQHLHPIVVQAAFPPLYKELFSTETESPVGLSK
Procedure: This approach is applicable to a wide variety of systems, and rigorous in theoretical interpretation through quantitation of equilibrium binding constants (KD).
The shift in the melting point described as a ΔTm is proportional to the concentration and affinity of the ligand.
RORγt ThermoFluor® Assay Construct
Protein and compound solutions are dispensed into black 384-well polypropylene PCR microplates (Abgene) and overlayed with silicone oil (1 μL, Fluka, type DC 200) to prevent evaporation.
Bar-coded assay plates are robotically loaded onto a thermostatically controlled PCR-type thermal block and then heated at a typical ramp-rate of 1° C./min for all experiments. Fluorescence was measured by continuous illumination with UV light (Hamamatsu LC6) supplied via fiber optic and filtered through a band-pass filter (380-400 nm; >6 OD cutoff). Fluorescence emission of the entire 384-well plate was detected by measuring light intensity using a CCD camera (Sensys, Roper Scientific) filtered to detect 500±25 nm, resulting in simultaneous and independent readings of all 384 wells. Images were collected at each temperature, and the sum of the pixel intensity in a given area of the assay plate was recorded versus temperature. Reference wells contained RORγt without compounds, and the assay conditions were as follows: • 0.065 mg/mL RORγt • 60 μM 1,8-ANS • 100 mM Hepes, pH 7.0 • 10 mM NaCl • 2.5 mM GSH • 0.002% Tween-20
Project compounds were arranged in a pre-dosed mother plate (Greiner Bio-one) wherein compounds are serially diluted in 100% DMSO by 1:2 from a high concentration of 10 mM over 12 columns within a series (column 12 is a reference well containing DMSO, no compound). The compounds were robotically dispensed directly into assay plates (1×=46 nL) using a Hummingbird capillary liquid handling instrument (Digilab). Following compound dispense, protein and dye in buffer was added to achieve the final assay volume of 3 μL, followed by 1 μL of silicone oil.

Row | RORγt reporter Assay, % inhibition @ 6 μM (human RORγt LBD) | IC50 (human RORγt LBD) | Kd [1] | inhibition at 6 µM (human RORγt LBD) | Compound
1 | 92% | 3.2 µM | 3.5 µM | – | Cn1cncc1C(O)(c1ccc(Cl)cc1)c1ccc2nc(O)c(Cc3ccc(-n4cccn4)cc3)c(Cl)c2c1 (single isomer, unassigned) [Example 55C, 3-(4-(1H-pyrazol-1-yl)benzyl)-4-chloro-6-((4-chlorophenyl)(hydroxy)(1-methyl-1H-imidazol-5-yl)methyl)quinolin-2-ol]
2 | 109% | 0.66 µM | 0.27 µM | – | COc1nc2c(F)cc(C(O)(c3ccc(C(F)(F)F)nc3)c3cncn3C)cc2c(Cl)c1Cc1ccc(-n2cccn2)cc1 (single isomer, unassigned) [Example 58C, (3-(4-(1H-pyrazol-1-yl)benzyl)-4-chloro-8-fluoro-2-methoxyquinolin-6-yl)(1-methyl-1H-imidazol-5-yl)(6-(trifluoromethyl)pyridin-3-yl)methanol]
3 | 108% | 0.57 µM | 0.22 µM | – | COc1nc2c(OC)cc(C(O)(c3ccc(C(F)(F)F)nc3)c3cncn3C)cc2c(Cl)c1Cc1ccc(-n2cccn2)cc1 (single isomer, unassigned) [Example 59C, (3-(4-(1H-pyrazol-1-yl)benzyl)-4-chloro-2,8-dimethoxyquinolin-6-yl)(1-methyl-1H-imidazol-5-yl)(6-(trifluoromethyl)pyridin-3-yl)methanol]
4 | – | 1 µM | 1.1 µM | 101% | Cn1cncc1C(O)(c1ccc(C(F)(F)F)nc1)c1ccc2nc(C#N)c(Cc3ccc(-n4cccn4)cc3)cc2c1 (single isomer, unassigned) [Example 70B, 3-(4-(1H-Pyrazol-1-yl)benzyl)-6-(hydroxy(1-methyl-1H-imidazol-5-yl)(6-(trifluoromethyl)pyridin-3-yl)methyl)quinoline-2-carbonitrile]
5 | 85% | 1.6 µM | 16 µM | – | Cn1cncc1C(O)(c1ccc(C(F)(F)F)nc1)c1ccc2nc(C#N)c(Cc3ccc(-n4cccn4)cc3)cc2c1 (single isomer, unassigned) [Example 70C, 3-(4-(1H-Pyrazol-1-yl)benzyl)-6-(hydroxy(1-methyl-1H-imidazol-5-yl)(6-(trifluoromethyl)pyridin-3-yl)methyl)quinoline-2-carbonitrile]
6 | 90% | 0.93 µM | 21 µM | – | CCN(CC)c1nc2ccc(C(O)(c3ccc(C(F)(F)F)nc3)c3cncn3C)cc2c(C#N)c1Cc1ccc(-n2cccn2)cc1 (single isomer, unassigned) [Example 74C, 3-(4-(1H-Pyrazol-1-yl)benzyl)-2-(diethylamino)-6-(hydroxy(1-methyl-1H-imidazol-5-yl)(6-(trifluoromethyl)pyridin-3-yl)methyl)quinoline-4-carbonitrile]
7 | 39% | > 6 µM | 8.6 µM | – | CCN(CC)c1nc2ccc(C(O)(c3ccc(Cl)cc3)c3cncn3C)cc2c(Cl)c1Cc1ccc(-n2cccn2)cc1 (single isomer, unassigned) [Example 75B, (3-(4-(1H-Pyrazol-1-yl)benzyl)-4-chloro-2-(diethylamino)quinolin-6-yl)(4-chlorophenyl)(1-methyl-1H-imidazol-5-yl)methanol]
8 | – | 0.12 µM | 0.076 µM | 102% | COc1nc2ccc(C(O)(c3ccc(C#N)cc3)c3cncn3C)cc2c(C#N)c1Cc1ccc(-n2cccn2)cc1 (single isomer, unassigned) [Example 76B, 3-(4-(1H-Pyrazol-1-yl)benzyl)-6-((4-cyanophenyl)(hydroxy)(1-methyl-1H-imidazol-5-yl)methyl)-2-methoxyquinoline-4-carbonitrile]
9 | – | 0.85 µM | 2.3 µM | 95% | COc1nc2ccc(C(N)(c3ccc(C)nc3C)c3cnnn3C)cc2c(Cl)c1Cc1ccc(C(F)(F)F)cc1 (single isomer, unassigned) [Example 87B, (4-Chloro-2-methoxy-3-(4-(trifluoromethyl)benzyl)quinolin-6-yl)(2,6-dimethylpyridin-3-yl)(1-methyl-1H-1,2,3-triazol-5-yl)methanamine]
